Measured values from the NIST ThermoML archive (doi:10.1016/j.jct.2017.07.014).
± gives the expanded uncertainty stated by the source.

What was measured:
[1] = refractive index (other wavelength) (dimensionless); conditions: 108 kPa, Liquid, Wavelength=632.8 nm, minimum deviation method
[2] = refractive index (other wavelength) (dimensionless); xn = mol fraction of the nth substance listed; conditions: 108 kPa, Liquid, Wavelength=632.8 nm, minimum deviation method, x2 = 0

CCCCn1cc[n+](C)c1.F[P-](F)(F)(F)(F)F [1-butyl-3-methylimidazolium hexafluorophosphate]
[1]
Conditions | refractive index
315.21 K | 1.4038 ± 0.0003
317.26 K | 1.4032 ± 0.0003
319.23 K | 1.4027 ± 0.0003
321.47 K | 1.4021 ± 0.0003
323.47 K | 1.4016 ± 0.0003
325.4 K | 1.4011 ± 0.0003

CCO [ethanol]
[1]
Conditions | refractive index
315.24 K | 1.3509 ± 0.0002
317.21 K | 1.3501 ± 0.0002
319.26 K | 1.3492 ± 0.0002
321.31 K | 1.3483 ± 0.0002
323.3 K | 1.3474 ± 0.0002
325.39 K | 1.3465 ± 0.0002

CCO [ethanol] + CCCCn1cc[n+](C)c1.F[P-](F)(F)(F)(F)F
[2]
Conditions | refractive index
315.24 K | 1.3509 ± 0.0002
317.21 K | 1.3501 ± 0.0002
319.26 K | 1.3492 ± 0.0002
321.31 K | 1.3483 ± 0.0002
323.3 K | 1.3474 ± 0.0002
325.39 K | 1.3465 ± 0.0002
